The Kd is the constant that tells how readily two partners part at equilibrium. The low end stands for a tighter complex, the high end for a looser complex.

In assay [1] the target is T1, EGFR WT (amino acids 669-1011) (Homo sapiens, UniProt P00533).
T1 construct: purchased Eurofins Discovery (KdELECT); host or cells: bacteria (E. coli BL21-derived, T7 phage)
Briefly: KdELECT binding assay, EGFR WT. As for the experimental part:
(§1) Exemplary compounds were tested for ability to bind to EGFR WT (amino acids 669-1011, Accession Number NP_005219.2) or EGFR T790M, L858R (amino acids 669-1011 Accession Number NP_005219.2) expressed from bacteria or mammalian cells, respectively. Compounds were tested using the KdELECT assay at Eurofins Discovery.
(§2) Kinase-tagged T7 phage strains were prepared in an E. coli host derived from the BL21 strain. E. coli were grown to log-phase and infected with T7 phage and incubated with shaking at 32° C. until lysis. The lysates were centrifuged and filtered to remove cell debris. The remaining kinases were produced in HEK-293 cells and subsequently tagged with DNA for qPCR detection. Streptavidin-coated magnetic beads were treated with biotinylated small molecule ligands for 30 minutes at room temperature to generate affinity resins for kinase assays. The liganded beads were blocked with excess biotin and washed with blocking buffer (SeaBlock (Pierce), 1% BSA, 0.05% Tween 20, 1 mM DTT) to remove unbound ligand and to reduce non-specific binding. Binding reactions were assembled by combining kinases, liganded affinity beads, and test compounds in 1x binding buffer (20% SeaBlock, 0.17× PBS, 0.05% Tween 20, 6 mM DTT). Test compounds were prepared as 111× stocks in 100% DMSO. Kd values were determined using an 11-point 3-fold compound dilution series with three DMSO control points. All compounds for Kd measurements are distributed by acoustic transfer (non-contact dispensing) in 100% DMSO. The compounds were then diluted directly into the assays such that the final concentration of DMSO was 0.9%. All reactions performed in polypropylene 384-well plate. Each was a final volume of 0.02 mL. The assay plates were incubated at room temperature with shaking for 1 hour and the affinity beads were washed with wash buffer (1× PBS, 0.05% Tween 20). The beads were then re-suspended in elution buffer (1× PBS, 0.05% Tween 20, 0.5 μM nonbiotinylated affinity ligand) and incubated at room temperature with shaking for 30 minutes. The kinase concentration in the eluates was measured by qPCR.

The target in assay [2] is T2, EGFR T790M, L858R (amino acids 669-1011) (Homo sapiens, UniProt P00533, L858R/T790M).
T2 construct: purchased Eurofins Discovery (KdELECT); host or cells: mammalian cells (HEK-293)
T2 sequence (P00533 669-1011 T790M/L858R): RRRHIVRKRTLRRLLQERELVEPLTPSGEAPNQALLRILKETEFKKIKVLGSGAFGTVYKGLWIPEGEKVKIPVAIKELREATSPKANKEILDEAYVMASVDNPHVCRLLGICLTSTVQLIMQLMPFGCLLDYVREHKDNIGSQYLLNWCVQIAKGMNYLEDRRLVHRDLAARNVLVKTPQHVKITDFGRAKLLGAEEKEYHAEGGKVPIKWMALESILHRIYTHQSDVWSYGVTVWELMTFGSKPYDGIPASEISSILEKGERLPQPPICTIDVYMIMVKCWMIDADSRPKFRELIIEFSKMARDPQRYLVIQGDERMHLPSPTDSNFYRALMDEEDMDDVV
Briefly: KdELECT binding assay, EGFR T790M, L858R. How it is done: as §1, §2

In assay [3] the target is T3, EGFR T790M/L858R kinase domain (Homo sapiens, UniProt P00533, L858R/T790M).
T3 construct: EGFR (amino acids 696-1022, T790M, L858R); expressed in transfected cells; host or cells: HEK293, lentiviral transduction, puromycin selection
T3 sequence (P00533 696-1022 T790M/L858R): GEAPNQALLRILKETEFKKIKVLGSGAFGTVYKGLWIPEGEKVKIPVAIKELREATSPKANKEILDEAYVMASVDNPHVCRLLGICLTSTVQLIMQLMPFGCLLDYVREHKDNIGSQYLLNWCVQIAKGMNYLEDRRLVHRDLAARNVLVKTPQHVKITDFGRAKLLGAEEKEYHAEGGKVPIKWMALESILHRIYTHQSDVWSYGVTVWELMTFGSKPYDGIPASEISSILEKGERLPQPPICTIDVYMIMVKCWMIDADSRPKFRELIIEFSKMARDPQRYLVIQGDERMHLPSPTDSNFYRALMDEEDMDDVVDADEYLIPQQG
Briefly: EGFR cellular target engagement assay (HEK293 cells stable for EGFR T790M, L858R). The assay is classed as cell-based. As to conditions: 6 hours, read-out: TE50 (the source's name). As for the experimental part: HEK293 cells were cultured in DMEM (Gibco 11995), supplemented with 10% Heat-inactivated FBS (Gibco A38400-01) and 1% Penicillin/Streptomycin (Gibco 15140-122) at 37° C. with 5% CO2 in a humidified tissue culture incubator. Cells were made stable for EGFR (amino acids 696-1022, T790M, L858R) by lentiviral transduction, followed by selection with 1 μg/ml Puromycin Dihydrochloride (Thermo A1113803). Cells were seeded at 30,000 cells/ml in 0.1 ml of complete media in Poly-D-lysine-treated 96-well plates and incubated overnight. Cells were treated with increasing concentrations of compound and let incubate at 37C and 5% CO2 for 6 hours, after which media was aspirated, washed with 1×PBS and cells were lysed in RIPA Lysis and Extraction Buffer (Thermo 89901) supplemented with 5 mM MgCl2, Protease and Phosphatase inhibitor cocktail (Thermo 1861281), and Universal Nuclease (Thermo 88700). Plates with RIPA were shaken at 4° C. at 600 rpm for 15 min. After shaking samples, they were collected and spun down at 21,000 g for 15 min at 4° C. Following centrifugation, […] of lysate was added to Laemmli Sample Buffer (Bio-Rad 1610747) plus 10% beta-mercaptoethanol, boiled for 15 minutes at 65° C. and loaded onto 4-20% Mini-PROTEAN TGX™ Precast Protein Gels (Bio-Rad). Protein was transferred to a nitrocellulose membrane (Thermo LC2000) using the iBlot 2 Dry Blotting System (Thermo). After transfer, membranes were washed in 1× TBST (Bioland Scientific LLC TBST0103) 3× for 5 min. Following the wash, blocking buffer (Rockland MB-070) was added for 1 hour at room temperature. Primary antibodies against EGFR (Cell Signaling Technology 3197) and actin (Cell Signaling Technology 3700S) were added overnight at 4° C. Membranes were then washed again 3× for 5 min in 1× TBST. Secondary antibodies (LI-COR 926-68072 and 926-68073) were added and shaken for 1 hr at room temperature. Membranes were then washed 3× for 5 min in 1×TBST and developed. Membranes were placed on an Odyssey imager (LI-COR).

T1 sequence (P00533 669-1011): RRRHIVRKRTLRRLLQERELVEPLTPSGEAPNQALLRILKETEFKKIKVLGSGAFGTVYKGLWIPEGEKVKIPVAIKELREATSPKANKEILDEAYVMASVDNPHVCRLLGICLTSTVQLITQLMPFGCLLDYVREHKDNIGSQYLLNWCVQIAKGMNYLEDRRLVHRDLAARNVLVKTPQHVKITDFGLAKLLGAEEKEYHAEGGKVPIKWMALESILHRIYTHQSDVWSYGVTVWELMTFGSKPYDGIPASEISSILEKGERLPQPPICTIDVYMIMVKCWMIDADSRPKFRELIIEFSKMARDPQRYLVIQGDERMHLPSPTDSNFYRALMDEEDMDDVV

In the case of `C=C(CN(C(=O)NCc1ccc2c(c1)CN(C1CCC(=O)NC1=O)C2=O)c1ccc(C)c(Cl)c1)C(=O)Nc1cc(Nc2ncc(-c3cn(C)c4ccccc34)cn2)c(OC)cc1N(C)CCN(C)C` (centres unmarked) [Compound I-42], the figures for the Kd in assay [1] and in assay [2] were more than 2500 nM and 500 to 2500 nM, respectively. In addition, in assay [3], the EC50 was in the range of 5000 to 10000 nM.
For `C=C(COc1cc(Cl)cc(NC(=O)NCc2ccc3c(c2)CN(C2CCC(=O)NC2=O)C3=O)c1)C(=O)N[C@@H]1CN(c2nc(Nc3cn(C)nc3OC)c3ncn(C)c3n2)C[C@H]1F` (some centres unmarked) [Compound I-45], the Kd in assay [1] was 50 to 500 nM; in assay [2], less than 50 nM.
Take `C=C(COc1ccc(Cl)cc1NC(=O)NCc1ccc2c(c1)CN(C1CCC(=O)NC1=O)C2=O)C(=O)N[C@@H]1CN(c2nc(Nc3cn(C)nc3OC)c3ncn(C)c3n2)C[C@H]1F` (some centres unmarked) [Compound I-47]: the Kd in assay [1] and in assay [2] was less than 50 nM each time. Further, the EC50 in assay [3] was 250 to 5000 nM.
As to `C=C(COc1cc(Cl)cc(NC(=O)NCc2ccc3c(c2)CN(C2CCC(=O)NC2=O)C3=O)c1)C(=O)N1C[C@H](COc2nc(Nc3cnn(C)c3)nc3[nH]cc(Cl)c23)[C@@H](OC)C1` (some centres unmarked) [Compound I-54], the Kd in assay [1] and in assay [2] was more than 2500 nM each time. The EC50 in assay [3] is 250 to 5000 nM.
For the compound `C=C(COc1cc(Cl)cc(NC(=O)NCc2ccc3c(c2)CN(C2CCC(=O)NC2=O)C3=O)c1)C(=O)Nc1cccc(Oc2nc(Nc3ccc(N4CCN(C)CC4)cc3)nc3ccsc23)c1` (centres unmarked) [Compound I-55], the Kd in assay [1] is more than 2500 nM; in assay [2], 500 to 2500 nM. Also, in assay [3], the EC50 was more than 10000 nM.
On the same counts, the results for `C=C(COc1cc(Cl)cc(NC(=O)NCc2ccc3c(c2)CN(C2CCC(=O)NC2=O)C3=O)c1)C(=O)Nc1cc(Nc2nccc(-c3cn(C)c4ccccc34)n2)c(OC)cc1N(C)CCN(C)C` (centres unmarked) [Compound I-59] are less than 50 nM, less than 50 nM and 250 to 5000 nM.
On the same counts, the results for `C=C(COc1c(Cl)cccc1NC(=O)NCc1ccc2c(c1)CN(C1CCC(=O)NC1=O)C2=O)C(=O)Nc1cc(Nc2nccc(-c3cn(C)c4ccccc34)n2)c(OC)cc1N(C)CCN(C)C` (centres unmarked) [Compound I-60] are 50 to 500 nM, less than 50 nM and less than 250 nM.
The corresponding values for `C=C(COc1cc(Cl)cc(NC(=O)NCc2ccc3c(c2)CN(C2CCC(=O)NC2=O)C3=O)c1)C(=O)Nc1cccc(-c2cccc3cnc(Nc4ccc(N5CCN(CCO)CC5)c(F)c4F)nc23)c1` (centres unmarked) [Compound I-61] are 500 to 2500 nM, 50 to 500 nM and more than 10000 nM.
Turning to `C=C(COc1c(Cl)cccc1NC(=O)NCc1ccc2c(c1)CN(C1CCC(=O)NC1=O)C2=O)C(=O)N[C@@H]1CN(c2nc(Nc3cn(C)nc3OC)c3ncn(C)c3n2)C[C@H]1F` (some centres unmarked) [Compound I-69], in assay [3], the EC50 is 250 to 5000 nM.
Still for that read-out and setting: the same measure for `C=C(CN(C(=O)NCc1ccc2c(c1)CN(C1CCC(=O)NC1=O)C2=O)c1ccc(C)c(Cl)c1)C(=O)Nc1cccc(Oc2nc(Nc3ccc(N4CCN(C)CC4)cc3)nc3ccsc23)c1` (centres unmarked) [Compound I-70]: more than 10000 nM.
Same read-out and setting: the same measure for `C=C(CN(C(=O)NCc1ccc2c(c1)CN(C1CCC(=O)NC1=O)C2=O)c1ccc(C)c(Cl)c1)C(=O)N1C[C@@H](COc2nc(Nc3cnn(C)c3)nc3[nH]cc(Cl)c23)[C@H](OC)C1` (some centres unmarked) [Compound I-71]: more than 10000 nM.
`C=C(CN1C(=O)CCC(N2Cc3cc(CNC(=O)Nc4ccc(C)c(Cl)c4)ccc3C2=O)C1=O)C(=O)Nc1cc(Nc2ncc(-c3cn(C)c4ccccc34)cn2)c(OC)cc1N(C)CCN(C)C` (centres unmarked) [Compound I-87]: the Kd was more than 2500 nM in assay [1] and less than 50 nM in assay [2]. In assay [3], the EC50 is less than 250 nM.
The corresponding values for `C=C(COC(=O)n1c(CNc2nc(N3CCNCC3)nc3c(Br)cnn23)nc2cc(C)ccc21)C(=O)N1C[C@H](COc2nc(Nc3cnn(C)c3)nc3[nH]cc(Cl)c23)[C@@H](OC)C1` [Compound V-4] are more than 2500 nM, more than 2500 nM and more than 10000 nM.
The corresponding values for `C=C(COc1cc(-c2ccccn2)ccc1CNc1nc(N[C@H](CC)CO)nc2c1ncn2C(C)C)C(=O)N[C@@H]1CN(c2nc(Nc3cn(C)nc3OC)c3ncn(C)c3n2)C[C@H]1F` [II-183] are 50 to 500 nM, 50 to 500 nM and 250 to 5000 nM.
The corresponding values for `C=C(COC(=O)N1CCN(c2nc(NCc3nc4cc(C)ccc4[nH]3)n3ncc(Br)c3n2)CC1)C(=O)N1C[C@H](COc2nc(Nc3cnn(C)c3)nc3[nH]cc(Cl)c23)[C@@H](OC)C1` [II-185] are more than 2500 nM, more than 2500 nM and more than 10000 nM.
For the compound `C=C(CN1CCN(c2nc(NCc3nc4cc(C)ccc4[nH]3)n3ncc(Br)c3n2)CC1)C(=O)Nc1cc(Nc2nccc(-c3cn(C)c4ccccc34)n2)c(OC)cc1N(C)CCN(C)C` [II-188], the Kd in assay [1] and in assay [2] was less than 50 nM in each case. In addition, the EC50 in assay [3] is less than 250 nM.
For the compound `C=C(CN1CCN(c2nc(NCc3nc4cc(C)ccc4[nH]3)n3ncc(Br)c3n2)CC1)C(=O)Nc1cccc(-c2cccc3cnc(Nc4ccc(N5CCN(CCO)CC5)c(F)c4F)nc23)c1` [II-191], the Kd in assay [1] was more than 2500 nM; in assay [2] it was 500 to 2500 nM. For the same compound, in assay [3], the EC50 was more than 10000 nM.

(Values after patent US20240408093A1, “HETEROBIFUNCTIONAL COMPOUNDS AND THEIR USE IN TREATING DISEASE” (HALDA THERAPEUTICS OPCO, INC., priority 2022, published 2024).)
